From US11583511B2, “Maresins for use in the treatment of CNS injuries” (UNIVERSITAT AUTONOMA DE BARCELONA, priority 2017, dated 2023)

Assays:
[1] = test system: neutrophils, macrophages and microglia in the contused spinal cord; experiment: Flow cytometry of immune cell counts in contused spinal cord after MaR1 treatment; type: in vivo, C57BI/6 mice; details: vs saline
Method: (§1) All surgical procedures were approved by the Universitat Autònoma de Barcelona Animal Care Committee and followed the guidelines of the European Commission on Animal Care, and the methods for each procedure were carried out in accordance with the approved guidelines. 142 Adult (8 to 10 weeks old) female C57BI/6 mice (Charles River) were anesthetized with ketamine:xylazine (90:10 mg/kg). After performing a laminectomy at the 11th thoracic vertebrae, the exposed spinal cord was contused using the Infinite Horizon Impactor device (Precision Scientific Instrumentation, Lexington, Ky.). Injuries were made using a force of 60 kdynes and tissue displacement ranging between 500-700 μm as reported earlier (Coll-Miro et al., 2016).
(§2) One hour after spinal cord injury, 1 μg of MaR1 (7S,14S-dihydroxy-4Z,8E,10E,12Z,16Z, 19Z-docosahexaenoic acid; Cayman Chemical) was injected intravenously in 100 μl of sterile saline, and then repeated daily thereafter until day 7. Control mice were injected with an equal volume of sterile saline following the same injection protocol. Precautions with regards to the handling of lipid mediators to prevent inactivity due to oxygenation were implemented. The MaR1 dosage was chosen accordingly to be above levels i) of approved MaR1 bioactivity in experimental disease models (Serhan et al., 2015) and ii) above SPM dosages sufficient to exert bioactivity in the CNS with intact and closed blood brain barrier (Marcheselli et al., 2003; Svensson et al., 2007).
(§3) Immune cells from the laminectomized and injured spinal cord were analyzed by flow cytometry at 1, 3, 7, 14, 21 and 28 days post-injury as described previously to study the dynamics of immune cell in spinal cord injury as described previously (Santos-Nogueira et al., 2015; Coll-Miro et al., 2016; Francos-Quijorna et al., 2016). Similarly, spinal cord from mice treated with MaR1 or saline were also harvested at day 1, 3 and 7 post-lesion. Briefly, spinal cords were cut in little pieces and passed through a cell strainer of 70 μm (BD falcon) and the cell suspension was centrifuged twice at 300 g for 10 minutes at 4° C. After cell counts, samples were divided, and cells alone and isotype-matched control samples were generated to control for nonspecific binding of antibodies and for auto-fluorescence. The following antibodies from eBioscience were used at 1:250 concentration: CD45-PerCP, CD11b-PE-Cy7, Ly6C-FITC, Ly6G-PE, Gr1-FITC, F4/80-APC or PE, CD3-FITC, CD4-APC, CD8-APC, CD19-PE, CD206-FITC, CD16/32-PE. After 30 min of incubation with combinations of antibodies at 4° C., cells were then fixed in 1% paraformaldehyde. For intracellular staining, cells were permeabilized with Permeabilization Wash Buffer (Biolegend), incubated with unconjugated rabbit antibodies against iNOS (1:200 Abcam), and goat antibodies against Arg1 (1:200; Santa Cruz) for 30 minutes, followed by staining with Alexa488 or Alexa647 conjugated donkey secondary antibodies against rabbit or goat (1:500 Molecular Probes) for 30 min. Finally, samples were washed and fixed in 1% paraformaldehyde. To perform the analysis, cells were first gated for CD45 to ensure that only infiltrating leukocytes and resident microglia are selected. Then, the following combination of markers were used to identify: microglia (CD45^low, CD11b^+, F4/80^+); macrophages (CD45^high, CD11b^+, F4/80^+); neutrophils (CD45^high, CD11b^+, F4/80^−, Gr1^high); CD4 T-Cells (CD45^+, CD11b^−, CD3^+, CD4^+); CD8 T Cells (CD45^+, CD11b, CD3^+, CD8^+); B cell (CD45^+, CD11b^−, CD3^−, CD19^+). To study the phenotype of microglia and macrophages, these cells were further differentiated based on Ly6C, CD16/32, iNOS, CD206 and Arg1 expression (Coll-Miro et al., 2016; Francos-Quijorna et al., 2016). Analysis of inflammatory cell kinetics at the lesion site was conducted applying objective and quantifiable measures of resolution dynamics as described previously (Pruss et al., 2011). […]

[2] = test system: cytokines and chemokines in the contused spinal cord; experiment: Cytokine protein expression in contused spinal cord (Luminex); type: in vivo, C57BI/6 mice
Method: as §1, §2
Mice treated with saline or MaR1 were perfused with sterile saline and a 5 mm length of spinal cord centered on the lesion was collected at 12 and 24 h after contusion injury and snap-frozen. Spinal cords were homogenized and protein concentration was determined using the DC Protein Assay (Bio-Rad). Samples were concentrated to 4 μg/μl using MicroCon centrifugation filters (Millipore) to ensure equal amounts of protein. Low concentrations of cytokines in the sample result in binding to the filters whereas high concentrations of protein sustain less losses. The protein levels of 32 cytokines and chemokines were then analyzed using the Milliplex MAP Mouse Cytokine/Chemokine magnetic bead panel (Millipore) on a Luminex (Millipore) as per manufacturers' protocol (Francos-Quijorna et al., 2016).

[3] = test system: STAT, MAPK, NF-κB and PI3K/Akt signaling; experiment: Western blotting of inflammatory signaling pathways in contused spinal cord; type: in vivo, C57BI/6 mice; details: vs saline
Method: as §1, §2
Samples used for Luminex assay, were also used to for western blotting. Protein samples (30 μg) were separated by electrophoresis on a 10-15% polyacrylamide gel and transferred onto PVDF membranes (Millipore). The membranes were incubated overnight at 4° C. with rabbit antibodies against phospho NF-kB p65 (1:1000; Cell Signaling), against the phosphorylated form of STAT1 (1:500; Cell Signaling), STAT3 (1:500; Cell Signaling), STAT5 (1:500; Cell Signaling) and STAT6 (1:500; Cell Signaling), JNK (1:500; Santa Cruz), ERK1/2 (1:1000; Cell Signaling), p38 (1:1000; Cell Signaling) and AKT (1:1000; Cell Signaling). Bands were detected using Chemiluminescence (Immobilon Western Chemiluminescence HRP reagent, Millipore) and data quantified by densitometry using Workflow v3 software in a Chemidoc apparatus (Millipore). ß-actin (1:10.000; Sigma Aldrich) was used to ensure equal loading of samples.

[4] = test system: macrophages and microglia (Ly6C, iNOS, Arg1); experiment: Flow cytometry of macrophage and microglia phenotype after SCI; type: in vivo, C57BI/6 mice
Method: as §1, §2, §3

[5] = test system: macrophages (CD45high, CD11b+, F4/80+); experiment: Efferocytosis: neutrophil marker Ly6G inside macrophages after SCI; type: in vivo, C57BI/6 mice; details: 7 days post-lesion; vs saline
Method: All surgical procedures were approved by the Universitat Autònoma de Barcelona Animal Care Committee and followed the guidelines of the European Commission on Animal Care, and the methods for each procedure were carried out in accordance with the approved guidelines. 142 Adult (8 to 10 weeks old) female C57BI/6 mice (Charles River) were anesthetized with ketamine:xylazine (90:10 mg/kg). After performing a laminectomy at the 11th thoracic vertebrae, the exposed spinal cord was contused using the Infinite Horizon Impactor device (Precision Scientific Instrumentation, Lexington, Ky.). […]
Immune cells from the laminectomized and injured spinal cord were analyzed by flow cytometry at 1, 3, 7, 14, 21 and 28 days post-injury as described previously to study the dynamics of immune cell in spinal cord injury as described previously (Santos-Nogueira et al., 2015; Coll-Miro et al., 2016; Francos-Quijorna et al., 2016). […] After cell counts, samples were divided, and cells alone and isotype-matched control samples were generated to control for nonspecific binding of antibodies and for auto-fluorescence. […] Analysis of inflammatory cell kinetics at the lesion site was conducted applying objective and quantifiable measures of resolution dynamics as described previously (Pruss et al., 2011). […]

[6] = test system: spinal cord contusion injury; experiment: Functional assessment of locomotor recovery after SCI (BMS, DigiGait, treadmill); type: in vivo, C57BI/6 mice
Method: as §1, §2
Locomotor recovery was evaluated at 1, 3, 5, 7, 10, 14, 21 and 28 dpi in an open-field test using the nine-point Basso Mouse Scale (BMS) (Basso et al., 2006), which was specifically developed for locomotor testing after contusion injuries in mice. The BMS analysis of hindlimb movements and coordination was performed by two independent assessors blinded for the treatment groups (MaR1 vs saline) and the consensus score taken. […] Moreover, the highest locomotion speed that each mouse was to able locomote for at least 5 seconds was also recorded on the DigiGait treadmill belt. […]

[7] = test system: spinal cord contusion injury; experiment: Histology of secondary tissue damage after SCI; type: in vivo, C57BI/6 mice; details: 28 days post-injury, vs saline
Method: as §1, §2
At 28 days post-injury, mice were perfused with 4% paraformaldehyde in 0.1M-phosphate buffer (PB). A 5 mm length of spinal cord containing the lesion site was removed, cryoprotected with 30% sucrose in 0.1M PB at 4° C., and 10 series of 10 μm thick section were picked up on glass slides. Adjacent sections on the same slide were therefore 100 μm apart. For quantification of myelin area content in the spinal cord analyses, sections were stained with Luxol Fast Blue (Sigma). […]
The epicenter of the injection or contusion injury impact was determined for each mouse spinal cord by localizing the tissue section with the greatest damage using LFB stained section. Myelin content after SCI was calculated by delineating the are of LFB stained tissue. Neuronal survival was assessed by counting the number of NeuN^+ cells in the ventral horns at the injury epicenter and at rostral and caudal areas. Axonal sparing was calculated by counting the number of axons in the dorsal column at the injury epicenter, the region of most pronounced damage. […] All quantifications were performed blinded to the experimental groups with the help of the ImageJ image analysis software.

[8] = test system: human macrophages; details: 1 nM concentration; cited from earlier work
[9] = contused spinal cord, 24 h after SCI, MaR1 1 μg i.v., mean ± SEM
[10] = spinal cord tissue 24 hours after SCI

For `CC/C=C\C/C=C\C[C@H](O)\C=C/C=C/C=C/[C@@H](O)C/C=C\CCC(=O)O` [MaR1, 7S,14S-dihydroxy-4Z,8E,10E,12Z,16Z, 19Z-docosahexaenoic acid], the “clearance of neutrophils from the contused spinal cord (Ri and T50)” value ([1]; 1 μg MaR1 i.v. daily for 7 days) was “accelerated”, the “entrance of blood-borne macrophages into the contused spinal cord” value ([1]; day 1) was “not different” and the “neutrophil counts in contused spinal cord” value ([1]; day 1 post-injury, 1 μg MaR1 i.v. daily from 1 hour after SCI) was “unaltered”. For the same molecule, the “macrophage counts in the contused spinal cord” value ([1]; day 3 post-injury, not significant) was “tended to be reduced”, the “reduction of neutrophil counts in the injured spinal cord” value ([1]; day 7, 1 μg MaR1 i.v. daily) was roughly 50% and the “macrophage accumulation in the lesioned spinal cord” value ([1]; day 7 post-lesion) was “significantly reduced”. The “microglial numbers in the contused spinal cord” value ([1]; first week following contusion injury) was “did not attenuate”, the “protein levels of the anti inflammatory cytokine IL-10” value ([2]; after SCI, vs saline) was “did not reduce” and the CCL3 protein level [2, 9] was 13.3 ± 1.18. For the same molecule, the CCL4 protein level [2, 9] was 17.7 ± 1.46, the CSF3 protein level [2, 9] was 741 ± 118 and the CXCL1 protein level [2, 9] was 87.5 ± 21.3. The CXCL2 protein level [2, 9] was 41.4 ± 7.50, the IL-6 protein level [2, 9] was 291 ± 56.7 and the IL-4 protein levels ([2]; injured spinal cord, both groups) was “undetected”. For the same molecule, the ERK1/2 activation ([3]; 24 hours post-injury) was “attenuated”, the JKN activation ([3]; 24 hours post-injury) was “remained unaltered” and the STAT1 activation ([3]; 24 hours post-injury) was “attenuated”. For the same molecule, the STAT3 activation ([3]; 24 hours post-injury) was “attenuated”, the STAT5 activation ([3]; 24 hours post-injury) was “attenuated” and the STAT6 activation ([3]; 24 hours post-injury) was “remained unaltered”. The p38 activation ([3]; 24 hours post-injury) was “attenuated”, the pAkt level [3, 10] was “not affected” and the pP65 level [3, 10] was “not affected”. The “percent of Ly6Chigh microglia” value ([4]; 7 days after SCI) was 10.6%±1.1, the “ratio LyC6low/LyC6high macrophages” value ([4]; 7 days after SCI, p=0.0036 vs saline) was 3.73±0.26 and the “reduction of pro-inflammatory macrophages (Ly6Chigh)” value ([4]; 7 days after SCI, vs saline) was roughly 50%. The “increase of Arg-1 expression in macrophages” value ([4]; 7 days post injury, did not reach statistical significance) was roughly 2 fold, the “iNOS expression in microglia” value ([4]; 7 days post injury, not statistically significant) was “tended to reduce” and the “iNOS expression in macrophages” value ([4]; 7 days post injury, vs saline) was “significantly reduced”. The “increase of neutrophil marker Ly6G inside macrophages (neutrophil phagocytosis)” value [5] was roughly 2 fold, the BMS score ([6]; 28 dpi, nine-point Basso Mouse Scale, 1 μg MaR1 i.v. daily until day 7) was 4.58±0.22 and the “DigiGait gait symmetry and stance/width stepping variability” value ([6]; day 28 post-injury, vs saline) was “improved”. For the same molecule, the “speed of locomotion on the treadmill” value ([6]; day 28 post-injury, vs saline) was “significantly faster”, the “neuronal survival in the ventral horn” value ([7]; caudal regions to the injury epicenter) was “improved” and the “myelin content (LFB)” value ([7]; injury epicenter and 200 μm rostral and caudal) was “increased”. For the same molecule, the “axonal sparing (NF+) in the dorsal columns” value ([7]; injury epicenter) was “enhanced”, the “demyelination (NF/MBP+) in the dorsal columns” value ([7]; injury epicenter) was “reduced” and the “efferocytosis by human macrophages compared with RvD1” value [8] was “greater efferocytosis”.
